Reference: US20060293335A1 (priority 2002, published 2006)
Like-named read-outs stand apart in the source and are kept apart here. Blank lines part the entries; values can stand above or below the molecule they belong to.

Legend:
[1] = system: blood glutathione reductase activity coefficient (BGRAC)
[2] = for urinary riboflavin excretion: i.m., riboflavin-free diet
Male wistar Rats = conditions: medium and high LRM injected
Experimental: 60 Wistar rats weighing 64.5±4.6 g were used in the experiment. […] The rats were weighed every 6 days. […] The blood glutathione reductase activity coefficient (BGRAC) was measured.

[3] = system: oral ulcer after bone marrow transplantation; conditions: 28 leukemia cases with bone marrow transplantation; 150 mg LRM injected
Experimental: 28 cases of leukemia with bone marrow transplantation were recruited. 150 mg LRM was injected for prevention of catarrh.

[4] = not given; remark: listed apart in the source
[5] = system: oral ulcer after chemotherapy
Experimental: 35 cases of acute lymphocytic leukemia and 13 cases of acute nonlymphocytic leukemia (6 M2 cases, 3 M3 cases, 2 M4 cases and 2 M5 cases) were also included.
Treatment: Regular chemotherapies, such as CODPL, HDMTX, DA were adopted. Other chemotherapies regimens were not listed. Tetrahydrofolate folic calcium was used to against the toxicity of HDMTX (hige-dose MTX). Hydration and alkalinizing of urine were performed in all patients by Dobll's solution. 5% NaHCO3 and 3% peroxide hydrogen were used to rinse the mouth alternatively.

[6] = day 15, medium dosage (5.01 g for 90 days per rat as printed; riboflavin group same dosage)
[7] = day 30, medium dosage (riboflavin group same dosage)
[8] = day 60, medium dosage (riboflavin group same dosage)
[9] = day 90, medium dosage (riboflavin group same dosage)

urinary riboflavin excretion [2, 6]: 4.0 ± 1.4 μg per rat per day
urinary riboflavin excretion [2, 7]: 7.8 ± 1.6 μg per rat per day
urinary riboflavin excretion [2, 8]: 4.5 ± 0.9 μg per rat per day
urinary riboflavin excretion [2, 9]: 4.2 ± 0.9 μg per rat per day
SMILES: Cc1cc2nc3c(=O)[nH]c(=O)nc-3n(C[C@H](O)[C@H](O)[C@H](O)CO)c2cc1C [Riboflavin, riboflavin, reference compound]
BGRAC, course and comparison ([1]; riboflavin group, during the first 30 days (FIG. 3)): gradually increased and significantly higher than that in the LRM groups and lower than that in the riboflavin deficiency group
food intake (riboflavin group (FIG. 1)): did not drop until 25 days later and still more than that in the riboflavin deficiency group

urinary riboflavin excretion ([2]; day 15, high dosage (double of medium)): 217.9 ± 60.2 μg per rat per day
urinary riboflavin excretion ([2]; day 15, low dosage (half of medium)): 5.6 ± 1.3 μg per rat per day
urinary riboflavin excretion [2, 6]: 34.8 ± 12.2 μg per rat per day
urinary riboflavin excretion ([2]; day 30, high dosage (double of medium)): 9.8 ± 3.5 μg per rat per day
urinary riboflavin excretion ([2]; day 30, low dosage (half of medium)): 4.1 ± 0.8 μg per rat per day
urinary riboflavin excretion [2, 7]: 5.0 ± 1.2 μg per rat per day
urinary riboflavin excretion ([2]; day 60, high dosage (double of medium)): 9.9 ± 2.0 μg per rat per day
urinary riboflavin excretion ([2]; day 60, low dosage (half of medium)): 5.4 ± 1.3 μg per rat per day
urinary riboflavin excretion [2, 8]: 7.8 ± 1.3 μg per rat per day
urinary riboflavin excretion ([2]; day 90, high dosage (double of medium)): 5.9 ± 1.2 μg per rat per day
urinary riboflavin excretion ([2]; day 90, low dosage (half of medium)): 5.1 ± 0.9 μg per rat per day
urinary riboflavin excretion [2, 9]: 4.6 ± 1.1 μg per rat per day
riboflavin content in plasma, course ([4]; high dosage LRM group (FIG. 4)): first elevated and then declined
content of riboflavin in plasma, course ([4]; riboflavin group, low and medium dosage LRM groups (FIG. 4)): decline
SMILES: CCCCCCCCCCCC(=O)OC[C@@H](O)[C@@H](O)[C@@H](O)Cn1c2nc(=O)[nH]c(=O)c-2nc2cc(C)c(C)cc21 [LRM, 5′-lauric acid monoester of riboflavin]
BGRAC, course and order of groups ([1]; low, medium and high dosage LRM groups (FIG. 3)): elevated, in the order as follows the low dosage LRM group>the medium dosage LRM group>the high dosage LRM group
release of free riboflavin in the body (Male wistar Rats): could slowly release free riboflavin and meet the demand of the body
riboflavin discharged in urine compared with riboflavin deficiency group ([2]; after 15 days, riboflavin group, low and medium dosage LRM groups): higher than that in the riboflavin deficiency group
urinary riboflavin excretion, course over time ([2]; high dosage LRM group): markedly increased at the 15th day and then rapidly decreased after the 30 days
cases that suffered oral ulcer [3]: 4 cases
share of cases that suffered oral ulcer [3]: 14.3%
food-intake (low dosage LRM group, after 30 days): decreased
weight gain (medium and high dosage LRM groups): gained weight significantly
gain of body weight (medium dosage LRM group, at the end of the experiment (FIG. 2)): lower than that of the high dosage LRM group
food intake (medium dosage LRM group, in the last few days): decreased and was lower than that of the high dosage LRM group
food intake (the three LRM groups (FIG. 1)): higher than the riboflavin group and the riboflavin deficiency group
Occurrence (%) of oral ulcer ([5]; ALL, LRM treated before chemotherapy (150 mg i.m.)): 0%
Ulcer observed (times) ([5]; ALL, LRM treated before chemotherapy (150 mg i.m.), 18 chemotherapies): 0 times
Occurrence (%) of oral ulcer ([5]; ALL, LRM treated in recent 3 months): 7.1%
Ulcer observed (times) ([5]; ALL, LRM treated in recent 3 months, 42 chemotherapies): 3 times
Occurrence (%) of oral ulcer ([5]; ANLL, LRM treated before chemotherapy (150 mg i.m.)): 0%
Ulcer observed (times) ([5]; ANLL, LRM treated before chemotherapy (150 mg i.m.), 8 chemotherapies): 0 times
Occurrence (%) of oral ulcer ([5]; ANLL, LRM treated in 3 months): 12.5%
Ulcer observed (times) ([5]; ANLL, LRM treated in 3 months, 8 chemotherapies): 1 times
prevention of oral ulcer after chemotherapy ([5]; LRM treatment prior to chemotherapy): could effectively prevent the occurrence of oral ulcer after chemotherapy
incidence of oral ulcer ([5]; within 3 months after chemotherapy): could effectively decrease the incidence of oral ulcer
